# In article PMC10223265 (Viruses, 2023):
# Read-outs that look alike come from different tables or passages of the source. Where a SMILES comes first, the peptide text is derived from it. Side-chain parts run from the residue outwards. The star is where a group is joined. X1 = CC(=O)N1CCC(C(=O)N(CCCN2CCC(Cc3ccc(C(=O)*)cc3)CC2)c2ccc(C)c(Cl)c2)CC1; PEG4 = NCCOCCOCCOCCOCCC(=O)O
# Tests used:
# CEMx174 5.25M7 cells = assay: Cell Counting Kit-8 (CCK8) cytotoxicity assay; format: cell-based; conditions: at 2000 nM
# [1] = CD spectroscopy of isolated peptides; format: physicochemical; conditions: 10 μM, [θ]222nm
# [2] = Solubility (saturated solution, RP-HPLC); format: physicochemical
# proteinase K = proteinase K (Parengyodontium album, UniProt P06873); assay: Metabolic stability in proteinase K solution; format: in vitro ADME; conditions: proteinase K 100 ng/mL, 50 μM peptide, 37 °C, 4-h incubation, read-out: original amount remaining
# Sequence of proteinase K (P06873 106-384): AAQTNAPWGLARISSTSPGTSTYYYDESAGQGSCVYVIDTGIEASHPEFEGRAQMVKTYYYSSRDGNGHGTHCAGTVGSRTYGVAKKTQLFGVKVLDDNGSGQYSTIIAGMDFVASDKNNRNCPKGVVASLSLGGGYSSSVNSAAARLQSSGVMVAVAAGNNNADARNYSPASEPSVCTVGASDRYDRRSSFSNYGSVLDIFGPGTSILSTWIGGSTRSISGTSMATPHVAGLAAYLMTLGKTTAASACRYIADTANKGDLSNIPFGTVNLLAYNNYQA
# CCR5 = CCR5 (Homo sapiens, UniProt P51681); assay: RANTES-induced calcium mobilization assay in CCR5-expressing HEK293 cells; format: cell-based; conditions: RANTES 34.6 nM, HEK293 cells expressing Gα15 and CCR5, Fluo-4
# Sequence of CCR5 (P51681 whole entry): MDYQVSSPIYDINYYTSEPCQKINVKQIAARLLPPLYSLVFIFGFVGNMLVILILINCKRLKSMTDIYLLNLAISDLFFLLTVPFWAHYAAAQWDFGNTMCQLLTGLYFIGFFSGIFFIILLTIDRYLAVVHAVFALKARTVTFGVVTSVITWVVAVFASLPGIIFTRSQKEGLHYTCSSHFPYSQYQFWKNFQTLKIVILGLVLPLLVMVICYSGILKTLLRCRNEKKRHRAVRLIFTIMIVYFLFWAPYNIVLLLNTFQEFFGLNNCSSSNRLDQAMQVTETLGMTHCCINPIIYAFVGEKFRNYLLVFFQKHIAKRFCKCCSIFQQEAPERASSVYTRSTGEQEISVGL
# [3] = system: HIV-1 BaL strain (subtype B, R5); assay: HIV-1 infection assay (p24 ELISA), laboratory-adapted R5 virus; format: cell-based; conditions: Human immunodeficiency virus 1, BAL, CEMx174 5.25M7
# [4] = system: HIV-1 91US_4 (subtype B, R5); assay: HIV-1 infection assay, primary isolate 91US_4; format: cell-based; conditions: Human immunodeficiency virus 1, primary isolate 91US_4, subtype B, CEMx174 5.25 M7 cells
# [5] = system: HIV-1 J32228M4 (subtype D, R5); assay: HIV-1 infection assay, primary isolate J32228M4; format: cell-based; conditions: Human immunodeficiency virus 1, CEMx174 5.25 M7 cells
# [6] = system: HIV-1 strain 89BZ167 (subtype B, X4); assay: HIV-1 infection assay, primary isolate 89BZ167; format: cell-based; conditions: Human immunodeficiency virus 1, CEMx174 5.25M7
# [7] = system: HIV-1 92UG029 (subtype A, X4); assay: HIV-1 infection assay, primary isolate 92UG029; format: cell-based; conditions: Human immunodeficiency virus 1, primary isolate 92UG029, subtype A, CEMx174 5.25 M7 cells
# [8] = Metabolic stability in rat plasma; format: in vitro ADME; conditions: 37 °C, 4-h incubation, read-out: degradation
# [9] = PBS pH 7.4, room temperature, read-out: Solubility in PBS (pH 7.4)
compound,measurement,setting,value
CC[C@H](C)[C@H](NC(=O)[C@H](CO)NC(=O)[C@H](CCC(=O)O)NC(=O)[C@H](CCC(=O)O)NC(=O)[C@H](CCC(N)=O)NC(=O)[C@H](CCCCN)NC(=O)[C@H](CCCCN)NC(=O)[C@@H](NC(=O)[C@H](CCC(N)=O)NC(=O)[C@H](CCC(=O)O)NC(=O)[C@H](CCC(=O)O)NC(=O)[C@@H](NC(=O)[C@H](CCCCN)NC(=O)[C@H](CCCCN)NC(=O)[C@@H](NC(=O)[C@H](CC(C)C)NC(=O)[C@H](CCC(=O)O)NC(=O)[C@H](CCC(=O)O)NC(=O)[C@H](CO)NC(=O)[C@H](CCCCN)NC(=O)[C@H](CCCCN)NC(=O)[C@@H](NC(=O)[C@H](CC(C)C)NC(=O)[C@H](CCC(=O)O)NC(=O)[C@H](CCC(=O)O)NC(=O)[C@@H](NC(=O)[C@H](CCCCN)NC(=O)[C@H](CCCCN)NC(=O)[C@H](CC(=O)O)NC(=O)[C@H](Cc1c[nH]c2ccccc12)NC(=O)[C@H](CCC(=O)O)NC(=O)[C@H](CCC(=O)O)NC(=O)[C@H](Cc1c[nH]c2ccccc12)NC(=O)[C@@H](NC(=O)[C@H](CCSC)NC(C)=O)[C@@H](C)O)[C@@H](C)CC)[C@@H](C)CC)[C@@H](C)CC)[C@@H](C)CC)[C@@H](C)CC)C(=O)N[C@@H](CCCCN)C(=O)N[C@@H](CCCCN)C(=O)N[C@@H](CCCCNC(=O)CCOCCOCCOCCOCCNC(=O)c1ccc(CC2CCN(CCCN(C(=O)C3CCN(C(C)=O)CC3)c3ccc(C)c(Cl)c3)CC2)cc1)C(N)=O [AP3P4E] (Ac-MTWEEWDKKIEELIKKSEELIKKIEEQIKKQEESIKKK([PEG4-X1])-NH2),cytotoxicity,CEMx174 5.25M7 cells,no cytotoxicity
same,helical content (isolated peptide),[1],83%
same,solubility at 24 h,[2]; [9],> 60000 µg/mL
same,solubility at 24 h,"[2]; dd-H2O, H2O, room temperature, read-out: Solubility in H2O",> 60000 µg/mL
same,"remaining at 4 h, 50 μM",proteinase K,89.9%
CC[C@H](C)[C@H](NC(=O)[C@H](CO)NC(=O)[C@H](CCC(=O)O)NC(=O)[C@H](CCC(=O)O)NC(=O)[C@H](CCC(N)=O)NC(=O)[C@H](CCCCN)NC(=O)[C@H](CCCCN)NC(=O)[C@@H](NC(=O)[C@H](CCC(N)=O)NC(=O)[C@H](CCC(=O)O)NC(=O)[C@H](CCC(=O)O)NC(=O)[C@@H](NC(=O)[C@H](CCCCN)NC(=O)[C@H](CCCCN)NC(=O)[C@@H](NC(=O)[C@H](CC(C)C)NC(=O)[C@H](CCC(=O)O)NC(=O)[C@H](CCC(=O)O)NC(=O)[C@H](CO)NC(=O)[C@H](CCCCN)NC(=O)[C@H](CCCCN)NC(=O)[C@@H](NC(=O)[C@H](CC(C)C)NC(=O)[C@H](CCC(=O)O)NC(=O)[C@H](CCC(=O)O)NC(=O)[C@@H](NC(=O)[C@H](CCCCN)NC(=O)[C@H](CCCCN)NC(=O)[C@H](CC(=O)O)NC(=O)[C@H](Cc1c[nH]c2ccccc12)NC(=O)[C@H](CCC(=O)O)NC(=O)[C@H](CCC(=O)O)NC(=O)[C@H](Cc1c[nH]c2ccccc12)NC(=O)[C@@H](NC(=O)[C@H](CCSC)NC(C)=O)[C@@H](C)O)[C@@H](C)CC)[C@@H](C)CC)[C@@H](C)CC)[C@@H](C)CC)[C@@H](C)CC)C(=O)N[C@@H](CCCCN)C(=O)N[C@@H](CCCCN)C(N)=O [AP3] (Ac-MTWEEWDKKIEELIKKSEELIKKIEEQIKKQEESIKK-NH2),helical content (isolated peptide),[1],86%
same,IC50,CCR5,> 625 nM
CC(=O)N1CCC(C(=O)N(CCCN2CCC(Cc3ccc(C(N)=O)cc3)CC2)c2ccc(C)c(Cl)c2)CC1 [TAK-220],EC50,[3],23.8 ± 13.3 nM
same,EC50,[4],12.1 ± 2.7 nM
same,EC50,[5],161 ± 6.6 nM
same,EC50,[6],> 300 nM
same,EC50,[7],> 300 nM
same,IC50,CCR5,0.74 nM
enfuvirtide,solubility thermodynamic at 24 h,[2]; [9],1020 ± 30 µg/mL
same,solubility thermodynamic at 24 h,"[2]; water (dd-H2O), H2O, room temperature, read-out: Solubility in H2O",330 ± 10 µg/mL
same,"remaining at 4 h, 50 μM",proteinase K,35.8%
same,"metabolised at 4 h, 50 μM",[8],68%
